{"source": "patent US5093320A", "about": "“Novel peptides inhibiting the maturation of t-lymphocytes and the activity of macrophages, pharmaceutical compositions containing them and process for preparing same” (priority 1989, dated 1992)", "key": {"[1]": {"system": "primary antibody production", "experiment": "Effect on the primary antibody production in newborn rats (haemagglutinin titre)", "format": "in vivo, Wistar (LATI) rats", "settings": "1 mg/kg i.p. within 12 hours after birth, haemagglutinin titre on day 7 following immunization with sheep erythrocytes", "description": "This study is based on the phenomenon of agglutination. A specific antiserum adheres to the surface of the antigen forming large granules which settle rapidly (agglutinate).\nNewborn Wistar (LATI) rats were intraperitoneally (i.p.) treated with an 1 mg/kg dose of the test substance within 12 hours after birth. On the 14th day, the animals were i.p. immunized by 0.5 ml of an 1% suspension of sheep erythrocytes. On day 7 following the immunization, blood was taken retroorbitally, after 30 minutes the sera were separated by centrifuging and the haemagglutinin titre was determined according to the method of Takatsy [Acta Microbiol. Acad. Sci. Hung. 3, 191 (1955)]. From the mixed sera (50 μl) of two rats, halving dilutions were prepared in 12 steps. Each sample was given 25 /ul of a 2% suspension of sheep erythroxytes The mixture was incubated at 37° C. for one hour to evaluate the agglutination. The data are summarized in Table 2 which show the suppressing (inhibitory) effect of the compounds on the primary antibody production as a percentage value in relation to the untreated animals. Immunostimulating substances show just the opposite effect in this test."}, "[2]": {"system": "late hypersensitive (DTH) response", "format": "in vivo, CFLP (LATI) mice", "settings": "mice sensitized with oxazolone", "description": "This test was carried out on male CFLP (LATI) mice weighing 25 to 30 g. At the beginning of the experiment, the mice were treated with a 3% solution of oxazolone in anhydrous ethanol by applying 20 μl of solution each on both ears and forepaws. […] The controls were treated only with saline. On day 10 of the experiment, 20 μl of an 2.5% olive oil solution of oxazolone were smeared on each ear of the animals. The thickness of the ears was twice measured, i.e. before and 24 hours after the administration of the antigen. The thickness was measured on both ears in the middle of the ear-lobes with an accuracy of 0.01 mm. The change was compared with the control group. The data concerning the suppression of the development of a DTH response are given as percentage values in Table 4."}, "[3]": {"system": "resting macrophages", "format": "in vivo, CFLP (LATI) mice", "settings": "mice", "description": "The phagocytating capacity of resting macrophage cells was investigated on mice [J. Immunopharmacol. 4, 265 (1982-1983)]. […] After bleeding the animals, their peritonea were washed with 8 ml of PBS buffer solution (phosphate buffered saline, pH=7.2) each containing 10 IU of heparin. The cell suspension washed out from the peritoneum was made free of the erythrocytes by shocking with distilled water, then washed 3 times with PBS buffer solution. The sedimentation between two washings was achieved by centrifuging at 1000 rpm for 5 minutes. The concentration of each cell suspension was adjusted to 10^6 cell/ml and the suspension was settled for 30 minutes in a Boyden-chamber at 37° C. in an atmosphere containing 5% of carbon dioxide. Over the macrophages adhered to the glass wall, opsonized yeast was layered. After removing the non-phagocytated particles, those incorporated by the macrophages were counted in each cell. In Table 3, the percentage of decrease in the count of phagocytated yeast cells is given in relation to the macrophages isolated from the untreated animals as control."}, "[4]": {"system": "antibody-producing cells", "experiment": "Effect on the antibody-producing cells in newborn rats (plaque-forming cell count of splenocytes)", "format": "in vivo, Wistar (LATI) rats", "settings": "1 mg/kg i.p. within 12 hours of birth, immunized day 14 with sheep erythrocytes, splenocytes 7 days later, vs untreated control", "description": "This investigation was carried out with splenocytes obtained from newborn rats according to the method of Canningham (Handbook of Experimental Immunology, Ed. D. M. Weir, Vol. 2., Blackwell, Oxford-London, page 285, 1978). Twelve Wistar (LATI) rats arising from a single litter were intraperitoneally (i.p.) treated with 7.5 μg of test substance in a dose of 1 mg/kg within 12 hours of their birth. On the 14th day after birth, the animals were i.p. immunized by 0.5 ml of an 1% suspension of sheep erythrocytes, then bled by decapitation after 7 days. From the splenocytes obtained from the animals, a homogeneous suspension was prepared using sheep erythrocyte suspension and complement which was then put into a chamber suitable for obtaining a monocellular layer. The chambers closed with paraffin were incubated at 37° C. for 45 minutes. Around the antibody-producing splenocytes, lytic areas, the so-called plaques, were formed. Under the effect of treatment with the suppressing substances, the number of the plaque-forming cells (PFC) was decreased. The data summarized in Table 1 illustrate this percentage decrease calculated on the basis of the cells obtained from the untreated control animals."}, "[5]": {"settings": "therapeutic dose does not significantly differ from the toxic one; cited from earlier work"}, "[6]": {"settings": "1 mg/kg i.p. on day 7, ear thickness 24 hours after antigen on day 10, vs saline control"}, "[7]": {"settings": "1 mg/kg s.c. daily for 7 days, count of phagocytated yeast cells vs untreated animals"}}, "note": "Where two headings read alike, the source gives them in different places. Positions of bridges follow the written chain, without caps; N, C: chain ends. Residues, ends and D or L forms follow the SMILES beside them. Chains are numbered I, II in the order given.", "data": [{"smiles": "N=C(N)NCCC[C@H](N)C(=O)N[C@@H](CCCCN)C(=O)N[C@@H](CC(=O)O)C(=O)N[C@@H](CSSC[C@H](NC(=O)[C@H](CC(=O)O)NC(=O)[C@H](CCCCN)NC(=O)[C@@H](N)CCCNC(=N)N)C(N)=O)C(N)=O", "note": "[(12)] (I: H-RKDC-NH2 / II: H-RKDC-NH2; disulfide I:4-II:4)", "values": [{"measurement": "Effect on the primary antibody production, Change in relation to the untreated control %", "setting": "[1]", "value": -10.7, "unit": "%"}, {"measurement": "Suppression of the DTH response, Suppression %", "setting": "[2]; [6]", "value": 35.3, "unit": "%"}, {"measurement": "Change in the phagocytating capacity of resting macrophages, Change %", "setting": "[3]; [7]", "value": -40.1, "unit": "%"}]}, {"smiles": "CC(C)C[C@H](NC(=O)[C@H](CCCCN)NC(=O)[C@H](CO)NC(=O)[C@@H](N)CCCCN)C(=O)O", "note": "[(13), Lys-Ser-Lys-Leu] (H-KSKL-OH)", "values": [{"measurement": "Suppression of the DTH response, Suppression %", "setting": "[2]; [6]", "value": 28.2, "unit": "%"}]}, {"smiles": "CC(C)C[C@H](NC(=O)[C@H](CCCCN)NC(=O)[C@@H](N)CO)C(=O)O", "note": "[(14), Ser-Lys-Leu] (H-Ser-Lys-Leu-OH)", "values": [{"measurement": "Suppression of the DTH response, Suppression %", "setting": "[2]; [6]", "value": 22.7, "unit": "%"}, {"measurement": "Change in the phagocytating capacity of resting macrophages, Change %", "setting": "[3]; [7]", "value": -14.0, "unit": "%"}]}, {"smiles": "C[C@@H](O)[C@H](NC(=O)[C@H](CO)NC(=O)[C@H](CO)NC(=O)[C@@H](N)CO)C(=O)O", "note": "[(15), Ser-Ser-Ser-Thr] (H-SSST-OH)", "values": [{"measurement": "Suppression of the DTH response, Suppression %", "setting": "[2]; [6]", "value": 18.0, "unit": "%"}]}, {"smiles": "C[C@@H](O)[C@H](NC(=O)[C@H](CCC(=O)O)NC(=O)[C@@H](N)CCCCN)C(=O)O", "note": "[(16), Lys-Glu-Thr] (H-Lys-Glu-Thr-OH)", "values": [{"measurement": "Suppression of the DTH response, Suppression %", "setting": "[2]; [6]", "value": 27.5, "unit": "%"}, {"measurement": "Suppression of the antibody production, Change % (number of plaque-forming cells)", "setting": "[4]", "value": -36.8, "unit": "%"}]}, {"smiles": "C[C@@H](O)[C@H](NC(=O)[C@H](CCC(=O)O)NC(=O)[C@@H](NC(=O)[C@@H](N)CCCCN)[C@@H](C)O)C(=O)O", "note": "[(17), Lys-Thr-Glu-Thr] (H-KTET-OH)", "values": [{"measurement": "Suppression of the DTH response, Suppression %", "setting": "[2]; [6]", "value": 35.5, "unit": "%"}, {"measurement": "Change in the phagocytating capacity of resting macrophages, Change %", "setting": "[3]; [7]", "value": -17.5, "unit": "%"}, {"measurement": "Suppression of the antibody production, Change % (number of plaque-forming cells)", "setting": "[4]", "value": -23.2, "unit": "%"}]}, {"smiles": "CC(C)C[C@H](NC(=O)[C@H](CCCCN)NC(=O)[C@@H]1CCCN1)C(=O)N[C@H](C(=O)O)[C@@H](C)O", "note": "[(18), Pro-Lys-Leu-Thr] (H-PKLT-OH)", "values": [{"measurement": "Change in the phagocytating capacity of resting macrophages, Change %", "setting": "[3]; [7]", "value": -11.7, "unit": "%"}, {"measurement": "Suppression of the antibody production, Change % (number of plaque-forming cells)", "setting": "[4]", "value": -19.4, "unit": "%"}]}, {"smiles": "C[C@@H](O)[C@H](NC(=O)[C@H](CCCCN)NC(=O)[C@@H](N)CCCCN)C(=O)N[C@@H](CCC(=O)O)C(=O)O", "note": "[(19), Lys-Lys-Thr-Glu] (H-KKTE-OH)", "values": [{"measurement": "Effect on the primary antibody production, Change in relation to the untreated control %", "setting": "[1]", "value": -10.8, "unit": "%"}, {"measurement": "Change in the phagocytating capacity of resting macrophages, Change %", "setting": "[3]; [7]", "value": -18.6, "unit": "%"}, {"measurement": "Suppression of the antibody production, Change % (number of plaque-forming cells)", "setting": "[4]", "value": -22.9, "unit": "%"}]}, {"smiles": "O=P1(N(CCCl)CCCl)NCCCO1", "note": "(stereo not drawn) [Cyclophosphamide, 2-[-bis(2-chloroethyl)amino]-tetrahydro-2H-1,3,2-oxazaphosphorine-2-oxide, reference compound]", "values": [{"measurement": "Suppression of the DTH response, Suppression %", "setting": "[2]; 150 mg/kg i.p. dose", "value": 72, "unit": "%"}, {"measurement": "therapeutic index", "setting": "[5]", "value": "below 10"}, {"measurement": "Change in the phagocytating capacity of resting macrophages, Change %", "setting": "[3]; 150 mg/kg i.p. dose", "value": -75.0, "unit": "%"}]}, {"smiles": "Cn1cnc([N+](=O)[O-])c1Sc1ncnc2nc[nH]c12", "note": "[azathioprin, 6-(1-methyl-4-nitro-5-imidazolylthio)purine]", "values": [{"measurement": "therapeutic index", "setting": "[5]", "value": "below 10"}]}]}
